Results: US4151300A, “Acetohydroxamic acids” (Laboratoire L. Lafon, priority 1976, dated 1979)
Entries after “also recorded” stand apart in the source; their conditions may differ.

Legend:
mice [1] = assay: interaction with oxotremorine (temperature, trembling, peripheral cholinergic symptoms); assay type: in vivo
rats [2] = assay: interaction with amphetamine (stereotypies in rats); assay type: in vivo
Experimental: (§1) The following text summarises a part of the results of the tests which were carried out with the products according to the invention, these products (unless otherwise stated) being administered intraperitoneally, in suspension in a gum solution (gum arabic), in a volume of 20 ml/kg in the case of mice and of 5 ml/kg in the case of rats.
30 minutes after the administration of CRL 40,373, amphetamine is injected intraperitoneally at a dose of 2 mg/kg.
Thirty minutes after the administration of CRL 40,385 the rats are given an intraperitoneal injection of 2 mg/kg of amphetamine (6 animals per dose).

catalepsy = assay: catalepsy, alone and after a neuroleptic agent; assay type: in vivo
mice [3] = assay: spontaneous motility (actimeter); assay type: in vivo; conditions: i.p.
Experimental: as §1
Thirty minutes after having been given CRL 40,373, the mice (6 per dose, 12 comparison animals) are placed in an actimeter, where their motility is recorded for half an hour.
Thirty minutes after having been given CRL 40,385, the mice are placed in actimeters where their motility is recorded for half an hour.

man = assay: clinical use in man; assay type: in vivo
rats [4] = assay: interaction with apomorphine (stereotype behaviour in rats); assay type: in vivo
Experimental: as §1
Batches of six rats are each given a subcutaneous injection of apomorphine (0.5 mg/kg) 30 minutes after the administration of CRL 40,373.
Batches of 6 rats are given a subcutaneous injection of 0.5 mg/kg of apomorphine 30 minutes after the administration of CRL 40,385.

rats [5] = assay: interaction with methylphenidate (stereotypies); assay type: in vivo; conditions: species not given
central nervous system = assay: psychopharmacological study / behaviour; assay type: in vivo, mice; conditions: mouse, in vivo
mice [6] = assay: traction (motor incoordination); assay type: in vivo, mice (EVIC CEBA strain); conditions: i.p.
mice [7] = assay: toxicity (isolated mice, intraperitoneal); assay type: in vivo; conditions: mice, i.p., at the doses mentioned above (64-1,024 mg/kg)
Experimental: as §1

[8] = toxicity (isolated mice, intraperitoneal); assay type: in vivo; conditions: mouse, in vivo, ip, isolated mice
Experimental: as §1

[9] = system: awake rats with spontaneous hypertension; assay: hypotensive action in awake rats with spontaneous hypertension; assay type: in vivo; conditions: 100 mg/kg orally
Experimental: In the tests reported below, CRL 40,385 was administered in suspension in a solution of gum arabic, in a volume of 2 ml/kg. The hypotensive action was studied in awake rats with spontaneous hypertension. One batch of 7 rats is given 100 mg/kg of CRL 40,385 orally, followed, 2 hours later, by a fresh dose of 100 mg/kg of this product.

[10] = toxicity in mice in groups; conditions: mouse, in vivo, ip
Experimental: as §1
The LD50 for intraperitoneal administration are as follows: […]

rats [11] = assay: prolonged conditioning to take avoiding action (shuttle box); assay type: in vivo
Description: Rats placed in a shuttle box are conditioned to avoid an electric shock by changing sides. The shock is preceded by a sound and light stimulus lasting 3 seconds, which ceases when sides are changed or after 8 seconds. The sequence is repeated every 20 seconds. Animals conditioned for several tens of minutes show a percentage of avoidance which is close to 100%. They continue to be subjected to the stimulus […] and gradually they reach a state in which they are no longer able to change sides during the period of 3 seconds during which no shock is delivered.
As a first approximation, such an effect can be likened to a resumption of conditioned activity in a tired animal.
Rats placed in a "shuttle box" are conditioned to avoid an electric shock lasting 5 seconds, by changing sides. The shock is preceded, for 3 seconds, by a sound and light stimulus which ceases when the rat changes side, or at the end of 8 seconds. The sequence repeats every 20 seconds. […] They continue to be subjected to the stimulus every 20 seconds and gradually they no longer succeed in avoiding the shock.
CRL 40,438 is then administered and any resumption of the avoidance movements is followed until the effect ceases.

mice [12] = assay: interaction with reserpine (hypothermia, ptosis); assay type: in vivo
mice [13] = assay: four-plate test; assay type: in vivo, mice (EVIC CEBA strain); conditions: mice, i.p.
Experimental: as §1
(§2) The test is carried out on batches of 10 sensitive mice (EVIC CEBA strain), 30 minutes after the administration of CRL 40,373.
(§3) Batches of 10 mice are subjected to the test thirty minutes after having received CRL 40,385.

[14] = system: catalepsy induced by prochlorperazine; assay: anticataleptic effect (prochlorperazine-induced catalepsy); assay type: in vivo; conditions: i.p., 256 mg/kg
Experimental: CRL 40,385 or amantadine are administered intraperitoneally 4 hours and 30 minutes after the injection of prochlorperazine (12.5 mg/kg administered intraperitoneally). The catalepsy is assessed every 30 minutes by the plug test (9 cm), the four plug test, the test using parallel bars and the test of crossing the paws on the same side.

mice [15] = assay: motility reduced by hypoxia treatment (motor recovery); assay type: in vivo; conditions: mice, i.p.
mice [16] = assay: motility reduced by habituation to a cage (residual motility); assay type: in vivo; conditions: i.p., from 32 mg/kg upwards
Experimental: as §1
Mice which have remained for 18 hours in the actimeters are given CRL 40,373. They are immediately replaced in their cages and, after a period of half an hour, their motility is recorded for 30 minutes (6 animals per dose, 12 comparison animals).
After remaining for 18 hours in the actimeters, the mice receive CRL 40,385. Immediately afterwards they are replaced in their cage and half an hour afterwards the recording of the motility starts and is continued for 30 minutes.

mice [17] = assay: inter-group aggressiveness (number of fights); assay type: in vivo; conditions: mice, i.p.
Experimental: as §1
After three weeks' residence in each of the halves of a cage divided by an opaque partition, the mice receive CRL 40,373 thirty minutes before being brought together by withdrawing the partition.
After 18 days' residence on either side of a partition separating their cage in the middle, groups of 3 mice receive CRL 40,385 and are brought together half an hour later by withdrawing the partition, and the number of fights which take place in the course of 15 minutes is noted.

mice [18] = assay: electrical shock (convulsing effects); assay type: in vivo, mice (EVIC CEBA strain); conditions: mice, i.p., large dose
Experimental: as §1, §2, §3

O=C(CN1C(=O)NC(c2ccccc2)(c2ccccc2)C1=O)NO [CRL 40,382, 3-(5,5-Diphenyl-hydantoinyl)-acetohydroxamic acid]
effects of oxotremorine (mice [1]; mouse, in vivo): absence of antagonism to the effects of oxotremorine
amphetamine-induced stereotypies (rats [2]; species not given): antagonism to the stereotypies induced by amphetamine
other effects of amphetamine (hypermotility, group toxicity) (rats [2]; species not given): without altering the other effects of this substance (hypermotility, group toxicity)
cataleptigenic effects of a neuroleptic agent (catalepsy; after a preliminary dose of a neuroleptic agent): boosts the cataleptigenic effects of a preliminary dose of a neuroleptic agent
catalepsy (catalepsy; in vivo): does not in itself cause catalepsy; also recorded: absence of catalepsy
spontaneous motility (mice [3]): moderate hypomotility
clinical result (man; tablet 250 mg, 2 to 3 tablets per day): used clinically with success as a sedative
effect of apomorphine (stereotypies) (rats [4]; species not given): does not counteract the effect of apomorphine
effect of methylphenidate (stereotypies) (rats [5]): does not counteract the effect of apomorphine and of methylphenidate
psychopharmacological profile / conclusion (central nervous system): antipsychotic activity associated with a moderate sedative effect
motor incoordination / incapacity (mice [6]): absence of catalepsy and of motor incapacity

O=C(CC(=O)N(c1ccccc1)c1ccccc1)NO [CRL 40,385, α-(N,N-Diphenylcarbamoyl)-acetohydroxamic acid]
peripheral cholinergic symptoms of oxotremorine (mice [1]; mice, i.p.): does not modify the increase in salivation, lachrymation and defaecation
oxotremorine-induced trembling (mice [1]; mice, i.p., 128 mg/kg and above all 512 mg/kg, oxotremorine 0.5 mg/kg i.p.): a reduction in the intensity of the trembling movements produced by oxotremorine
temperature (oxotremorine-induced hypothermia) (mice [1]; mice, i.p., 32 and 128 mg/kg, oxotremorine 0.5 mg/kg i.p.): very partial antagonism against the hypothermia produced by oxotremorine
mortality (mice [7]): no mortality whatsoever
LD50 [8]: 1500 mg/kg
amphetamine-induced stereotypies (rats [2]; i.p., 256 mg/kg): lengthening of the duration of the amphetamine-induced stereotypies
hypotensive effect [9]: hypotensive effect
arterial pressure (minimum) ([9]; 4 hours after second administration, from 166 mm Hg): 142 mm Hg
pulse rate ([9]; after first administration, from 364): 334 beats/minute
pulse rate change ([9]; after second administration): does not vary
time to minimum arterial pressure ([9]; after second administration): 4 h
reduction of arterial pressure ([9]; after second administration, statistically significant): 13%
average reduction of arterial pressure ([9]; first administration): 10%
reduction of pulse rate ([9]; first administration, statistically significant): 8%
LD50 ([10]; mice in groups): 1050 mg/kg
selectivity ratio ([10]; read-out: ratio LD50 (isolated mice)/LD50 (mice in groups)): 1.43
resumption of avoiding actions (prolonged avoidance test) (rats [11]): causes a resumption of avoiding actions in animals
spontaneous motility (mice [3]; mice, 128 and 256 mg/kg): moderate increase in the spontaneous motor activity
spontaneous motility (mice [3]; mice, dose larger than 128 and 256 mg/kg): effect disappears
reserpine-induced ptosis (mice [12]; i.p.): does not modify the intensity of the palpebral ptosis induced by reserpine
reserpine-induced hypothermia (mice [12]; i.p., 64, 128 and 256 mg/kg, reserpine 2.5 mg/kg i.p.): moderate antagonism towards reserpine-induced hypothermia
number of incorrect moves (four-plate test) (mice [13]): does not produce an increase in the number of incorrect moves
intensity of anticataleptic effect compared with amantadine [14]: less intense than that of an 8 times smaller dose of amantadine
cataleptigenic action of prochlorperazine ([14]; prochlorperazine 12.5 mg/kg i.p.): counteracts the cataleptigenic action of prochlorperazine
minimal effective dose (mice [15]; Mus musculus, ip, read-out: dose at which improvement of motor recovery after hypoxia appears): 32 mg/kg
motor recovery after hypoxia/anoxia by pressure reduction (mice [15]; 32 mg/kg increasing up to 512 mg/kg): causes an improvement in the motor recovery of mice
motility reduced by habituation to the cage (mice [16]): causes a resumption of activity in animals habituated to their cage
inter-group aggressiveness (mice [17]): reduces the aggressiveness
clinical result (man; tablet or pill 100 mg, 2 to 3 per day): used clinically with success for anti-fatigue treatment
apomorphine-induced stereotypies (rats [4]; rats, i.p., large dose, apomorphine 0.5 mg/kg s.c.): increase in the duration of the stereotypies induced by apomorphine
body temperature effect (product alone) (central nervous system): does not have a hypothermic action
psychopharmacological profile / conclusion (central nervous system): the most marked property is the anti-fatigue activity; also recorded: Some of its effects recall an anti-depressant type of activity, and others recall a psychostimulant type of activity; also recorded: psycho-stimulant properties
motor incoordination / incapacity (mice [6]): does not cause a major motor deficiency
convulsing effects of the electrical shock (mice [18]): counteracts the convulsing effects of the electrical shock
